PubChem BioAssay (NCI)
Where “and” joins values, the source holds several entries; their conditions need not be identical. Equal entries are not always repeated.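 Method: 48-hour compound exposure of cells in 96-well plates, five concentrations, linear interpolation of endpoints. At the GI50, growth is halved. Definition used: TGI = concentration required for complete inhibition of growth.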

Legend:
Experiment in all cases: DTP human tumour cell line panel, 48 h
[1] = system: HS 578T breast
[2] = system: SF-295 CNS
[3] = system: RPMI-8226 leukemia
[4] = system: UACC-62 melanoma
[5] = system: T-47D breast
[6] = system: OVCAR-3 ovarian
[7] = system: NCI-H226 lung
[8] = system: NCI-H460 lung
[9] = system: HT29 colon
[10] = system: NCI-H522 lung

Compound | TGI [1] [µM] | TGI [2] [µM] | TGI [3] [µM] | TGI [4] [µM] | TGI [5] [µM] | TGI [6] | TGI [7] [µM] | TGI [8] [µM] | TGI [9] | TGI [10] [µM] | GI50 [8] [µM]
CC(=O)C(=[N+]=[N-])C(=O)OC(C)(C)C#N | > 10 | > 10 | > 10 | > 10 | > 10 | > 10 µM | > 10 | > 10 | > 10 µM | – | –
CCCCCCOc1ccc(C(=O)NOCc2ccccc2)cc1 | > 100 | > 100 | > 100 | > 100 | – | > 100 µM | > 100 | > 100 | > 100 µM | > 100 | –
Cc1cccc2c1Oc1cc(Cl)ccc1C2NC(=O)CCN1CCN(CCO)CC1 (stereo unspecified) | – | 33 | – | 28.7 | 34.2 | 34 µM | – | 34.2 | 29.8 µM | 23.2 | –
COC(=O)C1=C(C(=O)OC)C2(OC(C)=O)c3ccccc3-c3ccccc3C12 (stereo unspecified) | – | 33 | 6.56 | 24.4 | – | 9.94 µM | 31.2 | 32.8 | 10.6 µM | 2.8 | –
CSC(C1c2ccccc2N(C)C2=NC(=O)N(C)C(=O)C21Cl)S(=O)(=O)c1ccc(C)cc1 (stereo unspecified) | – | > 100 | 57.8 | > 100 | – | 43.3 µM | > 100 | > 100 | > 100 µM | 30.8 | –
CC1(C)CC[C@]2(C)CC=C3[C@]4(C)CC[C@H]5C(C)(C)C(=O)CC[C@]5(C)[C@H]4CC[C@@]3(C)[C@H]2C1 | > 100 | > 100 | > 100 | > 100 | > 100 | > 100 µM | > 100 | – | > 100 µM | > 100 | –
COc1cc(-c2oc3c(OC)c(O)c(OC)c(O)c3c(=O)c2OC)cc(O)c1OC | – | 53.6 | > 100 | 71.8 | > 100 | 63.3 µM | > 100 | – | > 100 µM | > 100 | –
COC(OC)c1cccc2c1C(=O)CCC1(O)c3ccccc3C1C2 (stereo unspecified) | – | > 100 | 69.8 | > 100 | – | > 100 µM | > 100 | – | > 100 µM | > 100 | –
O=C1C(/C=C/c2ccc(Cl)cc2)=NNC2N1N=C1NC(=O)C3(NN12)c1ccccc1-c1ccccc13 (stereo unspecified) | > 100 | > 100 | – | > 100 | – | > 100 µM | > 100 | > 100 | > 100 µM | > 100 | –
COc1cc(C2C(Cl)C(=O)N2NC(=O)c2ccccc2O)ccc1O (stereo unspecified) | – | > 100 | – | > 100 | – | > 100 µM | > 100 | > 100 | > 100 µM | > 100 | –
CCCCC(=O)Nc1ccc2cc(C(=O)OC)c(ON3C(=O)c4ccccc4C3=O)nc2n1 | – | > 100 | > 100 | – | > 100 | > 100 µM | 60.2 | 51.4 | – | 58.5 | –
O=C(CC(=O)N1N=C(N2CCCCC2)CC1c1ccccc1)Nc1ccc(Cl)cc1 (stereo unspecified) | > 100 | > 100 | – | > 100 | > 100 | > 100 µM | > 100 | > 100 | > 100 µM | > 100 | –
O=C1C(CN2CCCCC2)CCCC1CN1CCCCC1 (stereo unspecified) | 72.3 | > 100 | 13.1 | > 67.9 | 3.74 | 32.1 µM and 34 µM | > 100 | > 100 | 34.2 µM and 40.8 µM | – | > 100
COC1=CC(=O)[C@H]2[C@H](C)C(c3ccccc3)[C@@]2(C)C1=O (stereo partly specified) | – | > 100 | > 100 | > 100 | – | > 100 µM | – | > 100 | > 100 µM | > 100 | –
CSc1nc(-c2cc3c(c(SC)n2)CCCCC3)cc2c1CCCCC2 | – | > 100 | > 100 | > 100 | – | > 100 µM | > 100 | > 100 | > 100 µM | 90.2 | –
O=C(/C=C/c1ccc(Cl)cc1)Oc1ccc(/C=C2\CCCCC2=O)cc1 | > 100 | > 100 | > 100 | > 100 | > 100 | > 100 µM | – | > 100 | > 100 µM | > 100 | –
O=C1CCC[C@]2(CCC[C@@H](O)C2)N1 | > 100 | > 100 | – | – | > 100 | > 100 µM | – | > 100 | > 100 µM | > 100 | –
Nc1nc(SCCNC(=O)CCc2ccc(O)cc2)nc2c1ncn2C1OC(CO)C(O)C1O (stereo unspecified) | – | > 203 | > 203 | > 203 | – | > 203 µM | > 203 | > 203 | > 203 µM | > 203 | –
Cc1cn(C2CCC(/C=N\O)O2)c(=O)[nH]c1=O (stereo unspecified) | – | > 100 | > 100 | > 100 | > 100 | > 100 µM | > 100 | > 100 | > 100 µM | – | –
CC1OC(OC2C(O[C@H]3CC[C@@]4(C)[C@@H](CC[C@@H]5[C@@H]4CC[C@]4(C)[C@@H]6[C@H](C[C@@H]54)O[C@]4(CC[C@@H](C)CO4)[C@H]6C)C3)OC(CO)C(OC3OC(CO)C(O)C(OC4OCC(O)C(O)C4O)C3OC3OCC(O)C(O)C3O)C2O)C(O)C(O)C1O (stereo partly specified) | 2.74 | 1.93 | 11.4 | 1.77 | – | 3.13 µM | 3.58 | 2.23 | 1.71 µM | – | –
CC1(C)CC(=O)C2=C(C1)c1c(ccc3ccccc13)NC2c1cn(Cc2ccc(Cl)cc2)c2ccccc12 (stereo unspecified) | > 100 | > 100 | > 100 | > 100 | > 100 | > 100 µM | – | > 100 | > 100 µM | > 100 | –
CC1(c2nc3cc(Cl)c(Cl)cc3[nH]2)CCC(CO)C(C)(C)O1 (stereo unspecified) | 53.9 | 95.3 | > 100 | 39.2 | > 100 | 74.3 µM | 56.6 | – | 34.2 µM | 30.3 | –
COc1cc(C2c3cc4c(cc3OC(Nc3ccc(C(=O)O)cc3)C2C)OCO4)cc(OC)c1OC (stereo unspecified) | – | > 100 | 25 | > 61.9 | > 100 | – | – | > 100 | > 34.2 µM | 6.02 | –
